From patent publication US20080177101A1, “Synthesis of isotopically labeled alpha-keto acids and esters” (Spectra Gases, Inc., priority 2006, published 2008)

Key:
[1] = Shelf storage stability of [1-^13C] pyruvic acid in water, 1H and 13C NMR spectra compared; format: physicochemical; settings: 0.025M in water
Protocol: Samples of isotopically labeled [1-^13C] pyruvic acid, having Formula VI and synthesized as discussed immediately below, were subjected to various conditions as depicted in Table 1, in order to establish the compound's shelf storage stability.
The resulting [1-^13C] pyruvic acid was tested as follows in Table 1:
^1H and ^13C NMR spectra of the distilled [1-^13C] pyruvic acid in water (0.025M) were acquired at the onset of the study and prior to exposing the samples to the various conditions specified in Table 1. ^1H and ^13C NMR spectra were again acquired for each of the samples after being exposed to the aforementioned conditions on a weekly basis for 12-weeks. The spectra acquired after exposure were compared visually and appeared to remain unchanged as compared with the spectra acquired prior to exposure, i.e. the spectra were as expected for [1-^13C] pyruvic acid in water. As such, it was concluded that each of the samples were shelf stable. Similarly, ^1H and ^13C NMR spectra acquired after 17-weeks of exposure remained unchanged as compared with the spectra acquired prior to exposure.

[2] = Titration of aqueous sample 4 with sodium hydroxide, composition by HPLC; format: physicochemical; settings: sample 4 titrated with sodium hydroxide to pH of about 6.2
Source text: The molarity of sample 4 was confirmed to be 0.025M by titrating the aqueous sample with sodium hydroxide. […] It was also discovered that at pHs greater than 5.8, such as at a pH of about 6.2, some of the pyruvic acid was present in the form of a dimerized sodium salt. […] As such, it was discovered that to minimize dimmer formation, it may be necessary to control the pH of [1-^13C] pyruvate solutions, and in particular, any aqueous solution should be maintained at a pH of about 6.5 or less, more preferably 6.0 or less, and even more preferably 5.8 or less.

[3] = Concentration studies: stability of pyruvic acid solutions in water at higher concentrations; format: physicochemical; parameters: unit not given here; settings: light, about 22° C. to about 26° C.
Protocol: Each of these commercial solutions were subjected to light for 6-weeks at temperatures ranging from about 22° C. to about 26° C. At each of the concentrations listed below, it was discovered that the pyruvic acid solutions were stable.

[4] = background description; cited from earlier work
[5] = Sample 3, Room temperature (about 22° C. to about 26° C.), Dark
[6] = Sample 4, Room temperature (about 22° C. to about 26° C.), Light

Shelf stability, 12 weeks ([1]; Sample 1, −10° C., Dark) | Shelf stability, 17 weeks ([1]; Sample 1, −10° C., Dark) | Shelf stability, 12 weeks ([1]; Sample 2, 4° C., Dark) | Shelf stability, 17 weeks ([1]; Sample 2, 4° C., Dark) | Shelf stability, 12 weeks [1, 5] | Shelf stability, 17 weeks [1, 5] | Shelf stability, 12 weeks [1, 6] | Shelf stability, 17 weeks [1, 6] | Share of the pyruvic acid accounted for by dimerized salt [2] | Stability After 6-weeks ([3]; Concentration 2.3 in water) | Stability After 6-weeks ([3]; Concentration 2.8 in water) | Stability After 6-weeks ([3]; Concentration 3.8 in water) | Stability After 6-weeks ([3]; Concentration 5.7 in water) | Stability After 6-weeks ([3]; Concentration 11.3 in water) | SMILES | Solubility in water [4]
Stable | Stable | Stable | Stable | Stable | Stable | Stable | Stable | 4-6% |  |  |  |  |  | CC(=O)[13C](=O)O [[1-^13C] pyruvic acid] | 
 |  |  |  |  |  |  |  |  | Stable | Stable | Stable | Stable | Stable | CC(=O)C(=O)O [Pyruvic acid, 2-oxopropanoic acid] | soluble in water
